Experimental data taken from patent US10166210B2, “Methods of subtyping CRC and their association with treatment of colon cancer patients with oxaliplatin” (NSABP Foundation, Inc., priority 2014, dated 2019).

Experiments:
early-stage colon cancer = conditions: recent MOSAIC analysis; all stage II or high risk stage II patients; cited from earlier work
[1] = system: stage II and III colon adenocarcinoma; conditions: oxaliplatin added to FU and LV; trials MOSAIC and C-07; cited from earlier work
[2] = system: stage II and III colon cancer, CRC subtypes; assay: C-07 discovery cohort: oxaliplatin benefit by CRC intrinsic subtype (CRC-SSP-72), Kaplan Meier analysis; assay type: in vivo, human
Description: FIG. 3 Kaplan Meier Plots of each CRC subtype using our gene signature by CRC-SSP-72 according to treatment (FULV versus FOLFOX) using recurrence free survival (RFS) as the end point. Among identified CRC subtypes, only Enterocyte received significant benefit (HR=0.315, p=0.005).
FIG. 4 Kaplan Meier Plots of the Enterocyte subtype and of all of the other subtypes (Goblet-like, Inflammatory, Stem-like and TA) combined into one group (Others) There is significant treatment-group interaction (p=0.012)
We have profiled 296 genes in 1840 patients using the nCounter Assay system (Nanostring Technologies, Seattle Wash.). Clinical data and nCounter data for the discovery dataset were merged and anonymized by the honest broker at the University of Pittsburgh as defined by standard operations under IRB approval of NSABP Biospecimen Bank and Biostatistics Center. We have developed a predictive algorithm to classify tumors into oxaliplatin benefit or no benefit group using discovery cohort of 848 patients without access to the data from the remaining 992 patients (validation cohort).
For C07, 2409 patients were enrolled in C-07 and all cases with tumor blocks, proper consent, clinical follow-up information and sufficient RNA yields were used in this study (N=1840). These cases were split into a discovery (N=848) and a validation (N=992) cohort (FIG. 1). […]

O=C1[O][Pt]2([NH][C@@H]3CCCC[C@H]3[NH]2)[O]C1=O [oxaliplatin]
benefit in stage II patients (early-stage colon cancer): no statistically significant benefit | disease free survival (DFS) [1]: significantly improved disease free survival | recurrence free survival (RFS) HR ([2]; Enterocyte subtype, FULV versus oxaliplatin arm, p=0.005): 0.315 | benefit from oxaliplatin by subtype ([2]; enterocyte subtype versus TA, goblet, inflammatory and stem-like, treatment-group interaction p=0.012): only the enterocyte subtype received benefit
